From US10172916B2, “Methods of treating heart failure with agonists of hypocretin receptor 2” (The Board of Trustees of the Leland Stanford Junior …, priority 2013, dated 2019)
Ends that are not written are not given here.

Test system: wild-type C57BL/6 mice stressed with angiotensin II+isoproterenol infusion (heart failure model)
Test: Orexin A minipump infusion in mice stressed with angiotensin II + isoproterenol, echocardiography
Type: in vivo, mouse
Procedure: Finally, to assess the potential of HCRTR2 as a novel therapeutic target for heart failure, wild-type mice were infused with saline (n=6) or the HCRTR2 agonist orexin A (n=7) for four weeks. At week two, all mice underwent infusion of angiotensin II and isoproterenol, neurohormones that mimic human heart failure. Echocardiography was performed blinded to drug infusion status at baseline, 2, 3 and 4 weeks (FIG. 3H).
Experimental mice were anesthetized with 1.5% isoflurane by a facemask. The Alzet osmotic minipumps (Model 2002 or 2004) from the Alzet Corporation (Cupertino, Calif., USA) were implanted subcutaneously in the back of mice, posterior to the scapulae. 14-week-old C57BL/6 mice were treated with either saline or orexin A (50 μg/kg/day) infusions using an Alzet (Cupertino, Calif.) osmotic minipump model 2004 (200 μl reservoir, 28-day release at 0.25 μl/hr) for a total of 4 weeks. At week 2, all mice were treated with angiotensin II (1.4 mg/kg/day) plus isoproterenol (15 mg/kg/day) infusion using an additional Alzet osmotic minipump, model 2002 (200 μl reservoir, 14-day release at 0.5 μl/hr) for two weeks, starting 2 weeks after initiation of the saline or orexin A infusion. Mice had echocardiography performed at baseline and weeks 2, 3 and 4.
For noninvasive echocardiography, mice were anesthetized with isoflurane via nose cone (maintenance: 1.5% isoflurane mixed with 1 L/minute 100% medical oxygen to obtain heart rate of 450±50 beats per minute). Mouse body temperature was monitored with a rectal thermometer. […]
Two-dimensional imaging (B-mode) was used to obtain a view of left and right ventricular movement during diastole and systole along the parasternal short axis. […] Early (E) wave was measured as the peak velocity during filling of the ventricle, and atrial (A) wave was measured as the peak velocity during atrial contraction, at the end of diastole. […] All data and images were saved and analyzed using a Vevo 2100 advanced cardiovascular package software with a semi-automated quantification of cardiac function (V 1.4.0 VisualSonics, Toronto, ON, Canada).

Substance: orexin A (QPLPDCCRQKTCSCRLYELLHGAGNHAAGILTL; ends and bridges not checked; cysteine pairing not given here; UniProt O43612 34-66, looked up) [HCRTR2 agonist]
- Ejection Fraction (WT mice, orexin A 50 μg/kg/day infusion for 4 weeks, angiotensin II+isoproterenol during latter 2 weeks, week 4, n=7, p=0.045 vs saline): 56.6%+/−4.5
- heart function in a mouse model of heart failure (summary statement): successful in rescuing heart function
- systolic function compared to saline controls (wild-type mice, four weeks infusion, angiotensin II and isoproterenol from week two, p=0.045): better systolic function compared to controls
